Reference: paper PMC12613848, “First in human phase 1 study of DT2216, a selective BCL-xL degrader, in patients with relapsed/refractory solid malignancies” (Journal of Hematology & Oncology, 2025)
Where two headings read alike, the source gives them in different places.

Assay: Plasma pharmacokinetics of DT2216 in patients, phase 1 dose escalation
Assay type: in vivo, human
Conditions: human, plasma, iv, plasma; for clearance: read-out: CL (converted); for half-life: read-out: T½ (converted); for Vd: read-out: Vdss; for Tmax: median (min, max)
Procedure: Dose escalation consisted of the administration of DT2216 intravenously twice weekly at several different doses outlined in protocol attached. The starting dose was 0.04 mg/kg, established based on pre-clinical toxicity studies. Safety was evaluated using CTCAE version 5.0. The initial three dose levels enrolled one patient, following which for dose level 4 and 5, a 3 + 3 design was utilized following a 100% incremental dose increase for dose levels 2 to 5 until the first dose limiting toxicity (DLT) in cycle 1 was observed. Thereafter, a modified Fibonacci sequence was used to define dose escalation increments until the maximum tolerated dose (MTD) was reached as described in protocol. If no dose-limiting toxicity (DLT) was observed during the DLT monitoring period of first 28 days, the next patient was enrolled at the next higher dose level. Dose-limiting toxicities (DLTs) during the first treatment cycle were defined as any Grade 5 toxicity; Grade 4 neutropenia lasting > 7 days; febrile neutropenia; Grade 4 thrombocytopenia or Grade 3 thrombocytopenia with clinically significant hemorrhage or lasting ≥ 7 days; and Grade ≥ 3 non-hematologic toxicities, excluding nausea, vomiting, or diarrhea lasting ≤ 3 days or transient laboratory abnormalities resolving within 72 h. Hepatotoxicity meeting Hy’s law criteria was also considered a DLT. Transient Grade 3–4 electrolyte abnormalities resolving to ≤ Grade 2 within 72 h were not considered DLTs.
Patients were allowed a maximum of two intra-patient dose escalations. Patients received DT2216 by intravenous infusion on days 1 and 4 weekly for at least 4 weeks, with each cycle consisting of a 28-day cycle for a maximum duration of 1 year until disease progression, unacceptable toxicity, or other withdrawal criteria, as listed in the protocol. The extent of disease was evaluated using imaging studies and disease-appropriate tumor markers every 8 weeks from day 1 of the first cycle. RP2D was established based on MTD as well as other relevant data, including clinical signals of activity, PK, and PD data.
Premedication prior to each infusion was at the discretion of the investigator or according to institutional guidelines. Patient assessment and follow-up procedures can be found in the schedule of assessments in this study. The clinical response was evaluated using RECIST v1.1 per protocol. Blood samples were collected for PK analysis before and after post-infusion at defined intervals, along with platelet counts. Exploratory biomarkers include (but are not limited to) the assessment of BCL-XL and VHL levels in peripheral white blood cells (WBC).
Throughout the course of the dose escalation trial, only one dose-limiting toxicity was observed, with grade 4 thrombocytopenia at a dose level of 0.32 mg/kg. […] The pharmacokinetic parameters of DT2216 were determined in patients following doses on Cycle 1 Day 1 and Cycle 1 Day 22 (Tables 4 and 5). […] AUC0-∞ values ranged from 8650 to 72,300 ng · h/mL over the dose range of 0.04 mg/kg 0.4 mg/kg. […] The volume of distribution at steady state (Vss) was small (< 100 mL/kg) and consistent across the dose groups. Following repeated dosing, accumulation of DT2216 in plasma was not observed with twice weekly dosing, with accumulation ratio values ranging from 0.74 to 1.07 on Cycle 1 Day 22 ([…]) across the dose groups.

[1] = 0.12 mg/kg, Cycle 1 Day 22, 0.12 mg/kg IV BIW, mean (CV%), N = 1
[2] = 0.24 mg/kg, Cycle 1 Day 1, 0.24 mg/kg IV, mean (CV%), N = 7
[3] = 0.24 mg/kg, Cycle 1 Day 22, 0.24 mg/kg IV BIW, mean (CV%), N = 6
[4] = 0.32 mg/kg, Cycle 1 Day 1, 0.32 mg/kg IV, mean (CV%), N = 5
[5] = 0.32 mg/kg, Cycle 1 Day 22, 0.32 mg/kg IV BIW, mean (CV%), N = 5
[6] = 0.4 mg/kg, Cycle 1 Day 1, 0.4 mg/kg IV, mean (CV%), N = 4
[7] = 0.4 mg/kg, Cycle 1 Day 22, 0.4 mg/kg IV BIW, mean (CV%), N = 4

Compound: Cc1ncsc1-c1ccc([C@H](C)NC(=O)[C@@H]2C[C@@H](O)CN2C(=O)[C@@H](NC(=O)CCCCCC(=O)N2CCN(CC[C@H](CSc3ccccc3)Nc3ccc(S(=O)(=O)NC(=O)c4ccc(N5CCN(CC6=C(c7ccc(Cl)cc7)CCC(C)(C)C6)CC5)cc4)cc3S(=O)(=O)C(F)(F)F)CC2)C(C)(C)C)cc1 [DT2216]
- clearance [1]: 0.138 mL/min/kg
- Cmax (0.12 mg/kg, Cycle 1 Day 22, 0.12 mg/kg IV BIW, mean (CV%), N = 1, read-out: Cmax): 2190 ng/mL
- half-life [1]: 5.24 h
- Vd [1]: 0.0665 L/kg
- Tmax (0.12 mg/kg, Cycle 1 Day 22, 0.12 mg/kg IV BIW, N = 1): 2.5 h
- AUC(0-t) (0.24 mg/kg, Cycle 1 Day 1, 0.24 mg/kg IV, mean (CV%), N = 6, read-out: AUC0−24): 24500 ng·h/mL
- AUC(0-t) (0.24 mg/kg, Cycle 1 Day 1, 0.24 mg/kg IV, mean (CV%), N = 6, read-out: AUClast): 37600 ng·h/mL
- AUC(0-inf) (0.24 mg/kg, Cycle 1 Day 1, 0.24 mg/kg IV, mean (CV%), N = 7, read-out: AUC0−∞): 36500 ng·h/mL
- clearance [2]: 0.122 mL/min/kg
- Cmax (0.24 mg/kg, Cycle 1 Day 1, 0.24 mg/kg IV, mean (CV%), N = 7, read-out: Cmax): 4080 ng/mL
- half-life [2]: 10.4 h
- Vd [2]: 0.0839 L/kg
- Tmax (0.24 mg/kg, Cycle 1 Day 1, 0.24 mg/kg IV, N = 7): 0.75 h
- AUC(0-t) (0.24 mg/kg, Cycle 1 Day 22, 0.24 mg/kg IV BIW, mean (CV%), N = 6, read-out: AUC0−24): 26300 ng·h/mL
- AUC(0-inf) (0.24 mg/kg, Cycle 1 Day 22, 0.24 mg/kg IV BIW, mean (CV%), N = 6, read-out: AUC0−∞): 30100 ng·h/mL
- AUC(0-t) (0.24 mg/kg, Cycle 1 Day 22, 0.24 mg/kg IV BIW, mean (CV%), N = 6, read-out: AUClast): 26400 ng·h/mL
- clearance [3]: 0.15 mL/min/kg
- Cmax (0.24 mg/kg, Cycle 1 Day 22, 0.24 mg/kg IV BIW, mean (CV%), N = 6, read-out: Cmax): 3090 ng/mL
- half-life [3]: 7.27 h
- Vd [3]: 0.0939 L/kg
- Tmax (0.24 mg/kg, Cycle 1 Day 22, 0.24 mg/kg IV BIW, N = 6): 2.5 h
- AUC(0-inf) (0.32 mg/kg, Cycle 1 Day 1, 0.32 mg/kg IV, mean (CV%), N = 5, read-out: AUC0−∞): 41500 ng·h/mL
- clearance [4]: 0.132 mL/min/kg
- half-life [4]: 7.09 h
- Vd [4]: 0.0683 L/kg
- AUC(0-t) (0.32 mg/kg, Cycle 1 Day 1, 0.32 mg/kg IV, mean (CV%), N = 6, read-out: AUC0−24): 33300 ng·h/mL
- AUC(0-t) (0.32 mg/kg, Cycle 1 Day 1, 0.32 mg/kg IV, mean (CV%), N = 6, read-out: AUClast): 43200 ng·h/mL
- Cmax (0.32 mg/kg, Cycle 1 Day 1, 0.32 mg/kg IV, mean (CV%), N = 6, read-out: Cmax): 5710 ng/mL
- Tmax (0.32 mg/kg, Cycle 1 Day 1, 0.32 mg/kg IV, N = 6): 0.75 h
- AUC(0-t) (0.32 mg/kg, Cycle 1 Day 22, 0.32 mg/kg IV BIW, mean (CV%), N = 5, read-out: AUC0−24): 32700 ng·h/mL
- AUC(0-inf) (0.32 mg/kg, Cycle 1 Day 22, 0.32 mg/kg IV BIW, mean (CV%), N = 5, read-out: AUC0−∞): 35000 ng·h/mL
- AUC(0-t) (0.32 mg/kg, Cycle 1 Day 22, 0.32 mg/kg IV BIW, mean (CV%), N = 5, read-out: AUClast): 32900 ng·h/mL
- clearance [5]: 0.154 mL/min/kg
- half-life [5]: 5.82 h
- Vd [5]: 0.0837 L/kg
- Cmax (0.32 mg/kg, Cycle 1 Day 22, 0.32 mg/kg IV BIW, mean (CV%), N = 6, read-out: Cmax): 4480 ng/mL
- Tmax (0.32 mg/kg, Cycle 1 Day 22, 0.32 mg/kg IV BIW, N = 6): 2.5 h
- AUC(0-t) (0.4 mg/kg, Cycle 1 Day 1, 0.4 mg/kg IV, mean (CV%), N = 4, read-out: AUC0−24): 53000 ng·h/mL
- AUC(0-inf) (0.4 mg/kg, Cycle 1 Day 1, 0.4 mg/kg IV, mean (CV%), N = 4, read-out: AUC0−∞): 73200 ng·h/mL
- AUC(0-t) (0.4 mg/kg, Cycle 1 Day 1, 0.4 mg/kg IV, mean (CV%), N = 4, read-out: AUClast): 72300 ng·h/mL
- clearance [6]: 0.0928 mL/min/kg
- Cmax (0.4 mg/kg, Cycle 1 Day 1, 0.4 mg/kg IV, mean (CV%), N = 4, read-out: Cmax): 8590 ng/mL
- half-life [6]: 10.7 h
- Vd [6]: 0.0709 L/kg
- Tmax (0.4 mg/kg, Cycle 1 Day 1, 0.4 mg/kg IV, N = 4): 0.75 h
- AUC(0-t) (0.4 mg/kg, Cycle 1 Day 22, 0.4 mg/kg IV BIW, mean (CV%), N = 4, read-out: AUC0−24): 53700 ng·h/mL
- AUC(0-inf) (0.4 mg/kg, Cycle 1 Day 22, 0.4 mg/kg IV BIW, mean (CV%), N = 4, read-out: AUC0−∞): 59500 ng·h/mL
- AUC(0-t) (0.4 mg/kg, Cycle 1 Day 22, 0.4 mg/kg IV BIW, mean (CV%), N = 4, read-out: AUClast): 54000 ng·h/mL
- clearance [7]: 0.117 mL/min/kg
- Cmax (0.4 mg/kg, Cycle 1 Day 22, 0.4 mg/kg IV BIW, mean (CV%), N = 4, read-out: Cmax): 6270 ng/mL
- half-life [7]: 6.7 h
- Vd [7]: 0.0729 L/kg
- Tmax (0.4 mg/kg, Cycle 1 Day 22, 0.4 mg/kg IV BIW, N = 4): 2.5 h
- AUC(0-inf) (over dose range 0.04 mg/kg to 0.4 mg/kg IV, read-out: AUC0-∞ values): 8650 to 72300 ng·h/mL
- Cmax (over dose range 0.04 mg/kg to 0.4 mg/kg IV, read-out: mean Cmax values): 738 to 8590 ng/mL
